Data set [1] has as its target T1, hemoglobin (Hb) in human red blood cells (Homo sapiens, UniProt P69905).
T1 construct: incubated for at least one hour at 37C with whole blood before Hemox analysis; endogenous in cells; host or cells: human red blood cells / whole blood
The experiment in a line: Oxy-hemoglobin dissociation curve (Hemox Analyzer), p50. The class given is biochemical. The method, then: One of the most extensively studied compounds for sickle cell anemia is GBT-440 (Voxelotor) (Figure 1B).[25] The extent of left-shifting can be assessed by determining the p50 or the partial pressure of oxygen at which half of the total Hb pool is bound to oxygen. We incubated human red blood cells with GBT-440 and observed a ~75% decrease in p50 (from ~28 to ~7 mmHg), consistent with previously reported values (Figure 1D). Experiments were performed using a HemOx analyzer that monitors oxygen saturation via Hb absorbance across a range of dissolved oxygen tensions. Upon further review of the sickle cell anemia literature, we found another compound, hereafter termed HypoxyStat (Figure 1B), which appeared to have a similar p50 as GBT-440.[26] We confirmed that HypoxyStat induced an ~82% decrease in p50 (Figure 1D).
Oxy-hemoglobin dissociation analysis was performed by the UCSF RBC laboratory using the TCS Hemox Analyzer (TCS Medical Products Company, Huntington Valley, PA). Initial pO2 is set to 160 mmHg. Hemoglobin is fully oxygenated under these conditions (HbO% =100). Replacement of air with nitrogen lowers pO2 and is measured by Clark electrode along with the change in the absorbance spectrum of hemoglobin. At a pO2 of 0 mmHg, hemoglobin is fully deoxygenated (HbO% =0). The relation between pO2 and HbO% is plotted, and the pO2 at which HbO% = 50% is defined as P50. The typical sigmoid de-oxygenation curve of normal blood with a P50 of 26–28 mmHg is used as a control for incubation conditions and to ensure proper function of the Hemox analyzer. For left-shifter comparison, the compounds were dissolved in HEPES buffered saline and then incubated for at least one hour at 37C with whole blood before Hemox analysis. A control of whole blood incubated with vehicle is also reported.

The next data set deals with Ndufs4 KO mouse. Put plainly: Ndufs4 KO mouse model of Leigh syndrome (survival, body weight, temperature, behavior, neuropathology). The class given is in vivo. The source says: We continuously bred Ndufs4 Het x Het mice to generate KO and controls for our experiments. Ndufs4+/− and WT mice were used as controls as they are identical in all previously reported assays. Ndufs4 mice were obtained directly from Jackson labs (#027058). Pups were weaned and genotyped at ~21 d after birth. The age of mice at the time of experiments is described throughout the text. Male and female mice were used throughout studies. All cages were provided with food and water, with hydrated gel provided to newly weaned cages. Body weights were recorded at every dosing. Mice were euthanized according to guidelines at 20% drop in peak body weight. All animal studies were approved by the Institutional Animal Care & Use Committee (IACUC) Program at UCSF/Gladstone.
Mice were administered HypoxyStat at 600 mg/kg every other day or 400mg/kg daily via oral gavage. For the disease prevention experiments, KO mice that underwent daily dosing were dosed starting ~P30 for 1 week of 200mg/kg daily, followed by 400mg/kg daily to allow for gradual dose escalation. For the reversal study, KO mice were dosed once with 200mg/kg on postnatal day ~P55, followed by 400mg/kg daily. HypoxyStat was formulated as a suspension at 60 mg/mL, 40mg/ml or 80mg/ml depending on dose in 0.5%HPMC and stored at 4 °C. The formulation was determined to be stable for at least 8 weeks. Animal body weight was taken at time of dosing to determine appropriate dosing volume (10 mL/kg for every other day dosing, 5ml/kg for daily dosing). Vehicle treated mice were administered the same volume of 0.5% HPMC.
Mice were euthanized via CO2 inhalation. To perfuse the whole body, the right atrium was nicked and a needle was inserted into the left ventricle. Ice-cold PBS was slowly injected first, followed immediately by 4% PFA solution. The brain was removed, stored in 4% PFA for 24–48 h, and then washed with PBS for 5 min (3 times). The brains were placed in 70% ethanol followed by paraffin embedding. For paraffin sections, brains were sagittally sectioned at 5 μm thickness. Prior to staining, sections were deparaffinized. Antigen retrieval was performed by heating the slides to boiling temperature in 10 mM sodium citrate solution (pH 6) in a microwave, followed by heating for 10 minutes. The sections were rinsed 3 times for 5 minutes each with PBS. They were then incubated in a blocking solution containing 5% donkey serum (DS) in PBS-Tx (PBS with 0.2% Triton X-100) for 60 minutes at room temperature. After blocking, sections were incubated overnight at 4C with the primary antibody IBA1 (Genetex GTX100042, 1:250) and NeuN (Sigma, MAB377, 1:500). Afterward, the sections were rinsed 3 times for 5 minutes with PBS-Tx. Next, they were incubated with a fluorophore-conjugated secondary antibodies (Invitrogen, A21206 or A31570) for 1 hour at room temperature. Following secondary antibody incubation, the sections were rinsed 3 times for 5 minutes with PBS-Tx, and then once for 5 minutes with PBS. Histology was quantified using either the percentage of Iba1+ positive signal or blinded scoring (on the scale of 1–5).
The open field instrument (San Diego Instruments) was used to measure spontaneous locomotor activity. Mice were placed in open field chambers and allowed to acclimate for 5 min before movement tracking for 20min. Spontaneous locomotor activity was measured based on beam breaks and recorded by the instrument. Age of measurements is +/− 5 days for practical purposes without any age bias between groups.

Data set [2] concerns hypoxia transcriptional response (HIF). The experiment in a line: Hypoxia biomarkers in mice (plasma Epo, hematocrit, blood glucose, hypoxia-induced brain transcripts). The class given is in vivo, mouse. The following applies: GBT-440. The method, then:
Plasma Epo measurements were performed with R&D Systems Epo Elisa Kit (MEP00B) according to manufacturer directions. Briefly, whole blood was collected with anticoagulant before centrifugation within 30 minutes of collection and stored at −80C until day of analysis. On the day of Epo assay, samples were thawed and diluted 2-fold and incubated in the assay plate for two hours. Each well was washed five times before the addition of Epo Conjugate followed by a two-hour incubation. Each well was washed five times before adding Substrate Solution to develop for 30 minutes before addition of Stop Solution. The optical density of each well was determined at 450nm and correction wavelength of 540/570.
Hematocrit was determined with an iStat VetScan 1 with Zoetis Chem 8+ cartridges. Blood glucose measurements were performed using OneTouch UltraPlus glucometer. Whole blood chemistry measurements were performed on a VetScan HM5.
Half of the hindbrain was collected at necropsy and immediately flash frozen. For RNA extraction, a stainless-steel bead (Qiagen) and 1 mL TRIzol™ Reagent (Thermo Fisher Scientific) were added to the frozen samples, which were rapidly lysed using a tissue lyser (Qiagen) for five 1-minute cycles of 30 Hz frequency. Subsequent steps for RNA isolation were identical as previously described.[9] Reverse transcription was performed using the QuantiTect Reverse Transcription Kit (Qiagen) instructions. Briefly, gDNA was wiped out from samples containing 1 μg RNA. gDNA-free RNA samples were reverse transcribed following Qiagen’s instructions. […] For each set of triplicates, an average CT value was obtained, and the difference in average CT between the target gene and β-actin was calculated (ΔCT). Next, the difference in ΔCT value between each sample and the average of the normoxia samples was calculated (ΔΔCT). Relative expression of each gene was determined by calculating 2^−ΔΔCT.

Details of data set [3]: method as in PMID 28337324. The following applies: Figure 2A, cited from earlier work.
A further data set deals with Hb. More on the design: method as in PMID 28337324. The settings on record: Figure 2A; cited from earlier work.
Setting [4] is: GBT-440 daily maximal dosing from P30.

Several values for one entry are separate records, joined by “and”; a condition that tells them apart may be missing. Equal entries are not always repeated.

Results on 1 molecule are retold here after article PMC12186697, “HypoxyStat, a small-molecule form of hypoxia therapy that increases oxygen-hemoglobin affinity” (Cell, 2025).

T1 sequence (P69905 2-142 limits assumed): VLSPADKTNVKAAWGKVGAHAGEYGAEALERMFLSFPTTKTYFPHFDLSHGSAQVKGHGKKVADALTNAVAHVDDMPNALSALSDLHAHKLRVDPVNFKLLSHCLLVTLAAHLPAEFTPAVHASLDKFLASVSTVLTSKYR
T1 sequence (P68871 2-147 partner limits assumed): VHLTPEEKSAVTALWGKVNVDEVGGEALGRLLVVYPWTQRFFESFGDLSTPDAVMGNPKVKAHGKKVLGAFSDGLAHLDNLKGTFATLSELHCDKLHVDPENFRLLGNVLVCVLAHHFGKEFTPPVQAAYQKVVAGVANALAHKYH

Consider `CC(C)n1nccc1-c1ncccc1COc1cccc(O)c1C=O` [GBT-440], for which, in data set [1] (human red blood cells incubated 1 h with 10 mM compound, vehicle ~28 mmHg), the p50 is 7.2 mmHg and ~ 7 mmHg. Also, the “decrease in p50” value in data set [1] (human red blood cells incubated with compound, vs vehicle) is on record as ~ 75%. Also, the “lifespan of Ndufs4 KO mice vs vehicle” value with Ndufs4 KO mouse (GBT-440 daily maximal dosing (400 mg/kg after 1 week at 200 mg/kg) from P30) is “did not result in a significant lifespan extension”. For the same molecule, in the data set on Ndufs4 KO mouse (setting [4]), the “spontaneous movement (open field), Ndufs4 KO mice” value is listed as “failed to rescue” and the “time on an accelerating rotating rod, Ndufs4 KO mice” value is reported as “failed to rescue”. In addition, the “body temperature of Ndufs4 KO mice” value in the data set with Ndufs4 KO mouse (GBT-440 daily maximal dosing from P30, ~P55) is given as “failed to rescue”. Moreover, in data set [2], the “hypoxia biomarker response compared with HypoxyStat and inhaled hypoxia” value was “significantly blunted response”. In data set [3] (PO), the “Mouse PO blood:plasma” value was 63.2 and the “Mouse PO half-life” value is reported as 15.8 h. Also, the Cmax in data set [3] (mouse) was 2210 nM. Further, the “Hb occupancy” value in the data set with Hb is given as 6.5%.
